Where a name gives a salt, the structure may show the parent alone. Read-outs that look alike come from different tables or passages of the source.
Key:
[1] = system: A/PR/8/34 influenza virus; assay: microbe, parasite or virus in culture; format: cell-based
[2] = system: influenza A virus (A/PR/8/34); assay: microbe, parasite or virus in culture; format: cell-based
[3] = Influenza A virus, PR/8, MDCK, bDNA assay, A/PR/8/34 influenza virus replication in MDCK cells, class symbols, read-out: EC50 (mean all)
[4] = Influenza A virus, PR/8, MDCK, CPE assay, A/PR/8/34 infected MDCK cells, class symbols, read-out: IC50 (mean all)
[5] = bDNA assay, A/PR/8/34 influenza virus replication in MDCK cells, class symbols, read-out: EC50 (mean all)
[6] = CPE assay, A/PR/8/34 infected MDCK cells, class symbols, read-out: IC50 (mean all)
[7] = Influenza A virus, PR/8, MDCK, MDCK cells infected with A/PR/8/34, bDNA viral RNA, read-out: EC50 (mean all)
[8] = Influenza A virus, PR/8, MDCK, MDCK cells infected with A/PR/8/34, cell protection (CPE), read-out: IC50 (mean all)
[9] = Influenza A virus, PR/8, MDCK, mean all, A/PR/8/34 influenza virus in MDCK cells, bDNA assay, read-out: EC50
[10] = Influenza A virus, PR/8, MDCK, mean all, A/PR/8/34 infected MDCK cells, CPE assay, read-out: IC50
[11] = mean all, A/PR/8/34 influenza virus replication, bDNA, read-out: EC50
[12] = mean all, bDNA viral RNA in MDCK cells infected with A/PR/8/34, read-out: EC50
[13] = mean all, MDCK cells infected with A/PR/8/34, cell protection (CPE), read-out: IC50
[14] = Influenza A virus, PR/8, MDCK, MDCK cells infected with A/PR/8/34, replication of influenza virus (viral RNA, bDNA), class symbols, read-out: EC50 (mean all)
[15] = Influenza A virus, PR/8, MDCK, MDCK cells infected with A/PR/8/34, survival of infected cells, class symbols, read-out: IC50 (mean all)

O=C(CCO)N[C@@H]1CCC[C@H](Nc2nc(-c3c[nH]c4ncc(Cl)cc34)ncc2F)C1 [Compound 634, N-[(1R,3S)-3-[[2-(5-chloro-1H-pyrrolo[2,3-b]pyridin-3-yl)-5-fluoro-pyrimidin-4-yl]amino]cyclohexyl]-3-hydroxy-propanamide hydrochloride]
EC50 [1, 3]: < 5 µM
IC50 [2, 4]: < 5 µM

C=CC1(O)CCCC(Nc2nc(-c3c[nH]c4ncc(Cl)cc34)ncc2F)C1 (centres unmarked) [Compound 628]
EC50 [1, 5]: < 5 µM
IC50 [2, 6]: < 5 µM

CC(=O)OCC(=O)N1CCC[C@H](CNc2nc(-c3c[nH]c4ncc(Cl)cc34)ncc2F)C1 [Compound 110, (R)-2-(3-((2-(5-chloro-1H-pyrrolo[2,3-b]pyridin-3-yl)-5-fluoropyrimidin-4-ylamino)methyl)piperidin-1-yl)-2-oxoethyl ethanoate]
EC50 [1, 7]: < 5 µM
IC50 [2, 8]: < 5 µM

CC1(C(=O)N[C@@H]2CCC[C@H](Nc3nc(-c4c[nH]c5ncc(Cl)cc45)ncc3F)C2)COC1 [Compound 635, N-[(1R,3S)-3-[[2-(5-chloro-1H-pyrrolo[2,3-b]pyridin-3-yl)-5-fluoro-pyrimidin-4-yl]amino]cyclohexyl]-3-methyl-oxetane-3-carboxamide hydrochloride]
EC50 [1, 3]: < 5 µM
IC50 [2, 4]: < 5 µM

CC(C)COC(=O)N1CCC[C@@H](CNc2nc(-c3c[nH]c4ncc(Cl)cc34)ncc2F)C1 [Compound 28, (S)-isobutyl 3-((2-(5-chloro-1H-pyrrolo[2,3-b]pyridin-3-yl)-5-fluoropyrimidin-4-ylamino)methyl)piperidine-1-carboxylate]
EC50 [1, 7]: < 5 µM
IC50 [2, 8]: > 20 µM

O=C(N[C@@H]1CCC[C@H](Nc2nc(-c3c[nH]c4ncc(Cl)cc34)ncc2F)C1)C1CCCO1 (stereo partly drawn) [Compound 638, N-[1R,3S)-3-[[2-(5-chloro-1H-pyrrolo[2,3-b]pyridin-3-yl)-5-fluoro-pyrimidin-4-yl]amino]cyclohexyl]tetrahydrofuran-2-carboxamide hydrochloride]
EC50 [1, 3]: < 5 µM
IC50 [2, 4]: < 5 µM

CC(=O)N[C@H]1CCC[C@@H](Nc2nc(-c3c[nH]c4ncc(Cl)cc34)ncc2F)C1 (relative stereo) [Compound 452, N-[cis-3-[[2-(5-chloro-1H-pyrrolo[2,3-b]pyridin-3-yl)-5-fluoropyrimidin-4-yl]amino]cyclohexyl]acetamide]
EC50 [1, 9]: < 5 µM
IC50 [2, 10]: < 5 µM

O=C(N[C@@H]1CCC[C@H](Nc2nc(-c3c[nH]c4ncc(Cl)cc34)ncc2F)C1)C1CCNCC1 [Compound 639, N-[(1R,3S)-3-[[2-(5-chloro-1H-pyrrolo[2,3-b]pyridin-3-yl)-5-fluoro-pyrimidin-4-yl]amino]cyclohexyl]piperidine-4-carboxamide bishydrochloride]
EC50 ([1]; Influenza A virus, PR/8, MDCK, read-out: EC50 (mean all)): > 3.3 µM
IC50 ([2]; Influenza A virus, PR/8, MDCK, read-out: IC50 (mean all)): > 10 µM

N#CC[C@]1(O)CCC[C@H](Nc2nc(-c3c[nH]c4ncc(F)cc34)ncc2F)C1 [Compound 979, 2-((1S,3S)-3-(5-fluoro-2-(5-fluoro-1H-pyrrolo[2,3-b]pyridin-3-yl)pyrimidin-4-ylamino)-1-hydroxycyclohexyl)ethanenitrile]
EC50 ([1]; Influenza A virus, PR/8, 30 h, HA(−) 30 hr, A/PR/8, bDNA, mean all, read-out: Cell Influenza HA(−) 30 hr A/PR/8 bDNA:bDNA EC50 uM(Mean (All))): < 5 µM
IC50 ([2]; Influenza A virus, PR/8, MDCK, MDCK cells, A/PR/8/34, ATP readout, mean all, read-out: Cell Flu, MDCK protection, ATP (All: IC50: uM)(Mean (All))): < 5 µM

CCCNC(=O)N1CCCC(Nc2nc(-c3c[nH]c4ncc(Cl)cc34)ncc2F)C1 (centres unmarked) [Compound 196]
EC50 ([1]; read-out: EC50 (mean all)): < 5 µM
IC50 ([2]; read-out: IC50 (mean all)): < 5 µM

CCCCNC(=O)N1CCC[C@H](Nc2nc(-c3c[nH]c4ncc(Cl)cc34)ncc2F)C1 [Compound 323]
EC50 [1, 9]: < 5 µM
IC50 [2, 10]: > 20 µM

O=C(N[C@@H]1CCC[C@H](Nc2nc(-c3c[nH]c4ncc(Cl)cc34)ncc2F)C1)C1CCOCC1 [Compound 636, N-[(1R,3S)-3-[[2-(5-chloro-1H-pyrrolo[2,3-b]pyridin-3-yl)-5-fluoro-pyrimidin-4-yl]amino]cyclohexyl]tetrahydropyran-4-carboxamide hydrochloride]
EC50 [1, 3]: < 5 µM
IC50 [2, 4]: < 5 µM

O=C(CC(F)(F)F)N1CCCC[C@@H]1CNc1nc(-c2c[nH]c3ncc(Cl)cc23)ncc1F [Compound 280, (R)-1-(2-((2-(5-chloro-1H-pyrrolo[2,3-b]pyridin-3-yl)-5-fluoropyrimidin-4-ylamino)methyl)piperidin-1-yl)-3,3,3-trifluoropropan-1-one]
EC50 [1, 7]: < 5 µM
IC50 [2, 8]: < 5 µM

O=S(=O)(c1cccc(Br)c1)N1CCC[C@H](CNc2nc(-c3c[nH]c4ncc(Cl)cc34)ncc2F)C1 [Compound 67, (R)—N-((1-(3-bromophenylsulfonyl)piperidin-3-yl)methyl)-2-(5-chloro-1H-pyrrolo[2,3-b]pyridin-3-yl)-5-fluoropyrimidin-4-amine]
EC50 [1, 7]: < 5 µM
IC50 [2, 8]: < 5 µM

COCCC(=O)N1CCC[C@H](CNc2nc(-c3c[nH]c4ncc(Cl)cc34)ncc2F)C1 [Compound 327, (R)-1-(3-((2-(5-chloro-1H-pyrrolo[2,3-b]pyridin-3-yl)-5-fluoropyrimidin-4-ylamino)methyl)piperidin-1-yl)-3-methoxypropan-1-one]
EC50 [1, 9]: < 5 µM
IC50 [2, 10]: < 5 µM

C[C@@]1(O)CCC[C@H](Nc2nc(-c3c[nH]c4ncc(Cl)cc34)ncc2F)[C@H]1O [Compound 860]
EC50 [1, 11]: < 5 µM
IC50 ([2]; read-out: IC50): < 5 µM

O=C(C1CCC1)N1CCC[C@H](Nc2nc(-c3c[nH]c4ncc(Cl)cc34)ncc2F)C1 [Compound 395]
EC50 [1, 9]: < 5 µM
IC50 [2, 10]: < 5 µM

Fc1cnc(-c2c[nH]c3ncc(Cl)cc23)nc1NC1CCCN(CC2CCCCO2)C1 (centres unmarked) [Compound 663]
EC50 [1, 5]: < 5 µM
IC50 [2, 6]: < 5 µM

O=C(CC(F)(F)F)N1CCC[C@@H](CNc2nc(-c3c[nH]c4ncc(Cl)cc34)ncc2F)C1 [Compound 44, (S)-1-(3-((2-(5-chloro-1H-pyrrolo[2,3-b]pyridin-3-yl)-5-fluoropyrimidin-4-ylamino)methyl)piperidin-1-yl)-3,3,3-trifluoropropan-1-one]
EC50 [1, 7]: < 5 µM
IC50 [2, 8]: < 5 µM

O[C@H]1[C@H](O)CCC[C@@H]1Nc1nc(-c2c[nH]c3ncc(Cl)cc23)ncc1F [Compound 625]
EC50 [1, 3]: < 5 µM
IC50 [2, 4]: < 5 µM

O=c1[nH]c(=O)n([C@H]2CCC[C@H](Nc3nc(-c4c[nH]c5ncc(Cl)cc45)ncc3F)C2)o1 [Compound 798]
EC50 [1, 11]: < 5 µM
IC50 ([2]; read-out: IC50): < 5 µM

CCOC(=O)C(=O)N(C(=O)OC(C)(C)C)C1CC2CC(C(=O)OC)C1C2 (centres unmarked) [Compound 721]
EC50 [1, 12]: < 5 µM
IC50 [2, 13]: < 5 µM

C[C@@]1(C(=O)O)CCCC(Nc2nc(-c3c[nH]c4ncc(Cl)cc34)ncc2F)C1 (some centres unmarked) [Compound 826]
EC50 ([1]; Influenza A virus, PR/8, mean all, A/PR/8/34 influenza virus replication, bDNA, read-out: EC50): < 5 µM
IC50 ([2]; Influenza A virus, PR/8, MDCK, mean all, A/PR/8/34 infected MDCK cells, cell protection (CPE), read-out: IC50): < 5 µM

O=C(O)[C@H]1CCCC[C@@H]1Nc1nc(-c2c[nH]c3ncc(Cl)cc23)ncc1F [Compound 553, (1S,2S)-2-[[2-(5-chloro-1H-pyrrolo[5,4-b]pyridin-3-yl)-5-fluoro-pyrimidin-4-yl]amino]cyclohexane-1-carboxylic acid]
EC50 [1, 14]: < 5 µM
IC50 [2, 15]: < 5 µM

CCCS(=O)(=O)N1CCC[C@H](Nc2nc(-c3c[nH]c4ncc(Cl)cc34)ncc2F)C1 [Compound 306, (S)-2-(5-chloro-1H-pyrrolo[2,3-b]pyridin-3-yl)-5-fluoro-N-(1-(propylsulfonyl)-piperidin-3-yl)pyrimidin-4-amine]
EC50 [1, 9]: < 5 µM
IC50 [2, 10]: < 5 µM

COCCNC(=O)[C@@H]1CCC[C@H](Nc2nc(-c3c[nH]c4ncc(Cl)cc34)ncc2F)C1 [Compound 789]
EC50 [1, 11]: < 5 µM
IC50 ([2]; read-out: IC50): < 5 µM

CC1(C(=O)O)CCCCC1Nc1nc(-c2c[nH]c3ncc(Cl)cc23)ncc1F (centres unmarked) [Compound 677]
EC50 [1, 12]: < 5 µM
IC50 [2, 13]: < 5 µM

CN(C)C(=O)N[C@H]1CCC[C@H](Nc2nc(-c3c[nH]c4ncc(Cl)cc34)ncc2F)C1 (relative stereo) [Compound 459, 3-[trans-3-[[2-(5-chloro-1H-pyrrolo[2,3-b]pyridin-3-yl)-5-fluoro-pyrimidin-4-yl]amino]cyclohexyl]-1,1-dimethyl-urea]
EC50 [1, 9]: < 5 µM
IC50 [2, 10]: < 5 µM

CC(C)(C(=O)NC1CC1)N1CCC[C@H](Nc2nc(-c3c[nH]c4ncc(Cl)cc34)ncc2F)C1 [Compound 602]
EC50 [1, 3]: < 5 µM
IC50 [2, 4]: < 5 µM

CC1(O)CCCCC1Nc1nc(-c2c[nH]c3ncc(Cl)cc23)ncc1F (single isomer, unassigned) [Compound 563, 2-(2-(5-chloro-1H-pyrrolo[2,3-b]pyridin-3-yl)-5-fluoropyrimidin-4-ylamino)-1-methylcyclohexanol]
EC50 [1, 14]: < 5 µM
IC50 [2, 15]: < 5 µM

NC1CCCCC1Nc1nc(-c2c[nH]c3ncc(Cl)cc23)ncc1F (centres unmarked) [Compound 414]
EC50 ([1]; mean all, A/PR/8/34 influenza virus in MDCK cells, bDNA assay, read-out: EC50): < 5 µM
IC50 ([2]; mean all, A/PR/8/34 infected MDCK cells, CPE assay, read-out: IC50): < 5 µM
